Measurements from patent publication US6916805B2, “Quinoxalinones as serine protease inhibitors” (Warner-Lambert Company LLC, priority 1998, dated 2005).
Blank lines part the entries; values can stand above or below the compound they belong to.

Experiments:
[1] = system: human trypsin; assay: Trypsin IC50, cleavage of S2222; type: biochemical
Experimental: The ability of compounds to act as inhibitors of human trypsin catalytic activity is assessed by determination of that concentration of test substance that inhibits by 50% (IC50) the ability of human trypsin to cleave the chromogenic substrate S2222 (N-Bz-L-Ile-L-Glu-L-Gly-L-Arg-p-nitroanilide. HCl, DiaPharma). Typically, 145 μL human trypsin (0.5 nM final) in 10 mM HEPES, 150 mM NaCl, 0.1% BSA, and 5 μL of the test substance in DMSO (2% final) are incubated for 60 minutes at room temperature. Following preheating to 37° C. for 5 minutes, to this mixture is added 100 μL of S2222 in HBSA buffer (100 μM final), and the velocity of S2222 hydrolysis is determined at 37° C. by measuring the optical density at OD405 nm every 10 seconds over 5 minutes using a ThermoMax® Kinetic Microplate Reader.

[2] = biological target: T1, human tissue factor/factor VIIa complex (Homo sapiens, UniProt P08709); assay: Tissue factor/factor VIIa inhibition, cleavage of Spectrozyme VIIa; type: biochemical; conditions: read-out: VIIa % inhib. @ 100 μM
T1 construct: 50 μL human factor VIIa (Enzyme Research Laboratories); purchased Enzyme Research Laboratories (factor VIIa); American Diagnostica (recombinant tissue factor)
Experimental: The ability of compounds to act as inhibitors of the catalytic activity of human tissue factor/factor VIIa complex is assessed by determination of that concentration of test substance that inhibits by 50% (IC50 the ability of a complex of human recombinant tissue factor/factor VIIa to cleave the chromogenic substrate Spectrozyme VIIa (CH3SO2-D-CHA-Arg-pNA*AcOH, American Diagnostica). Typically, 50 μL human factor VIIa (Enzyme Research Laboratories) is incubated for 10 minutes as a 1:1 mixture (5 nM final each) with 95 μL recombinant human tissue factor (American Diagnostica) in a modified HBSA buffer (10 mM Hepes, 5 mM CaCl2, 0.1% BSA, pH 8.0). Then, 5 μL of the test substance in DMSO (2% final) is added and incubated for 60 minutes at room temperature. Following preheating to 37° C. for 5 minutes, to this mixture is added 100 μL of Spectrozyme VIIa (500 μM final) in modified HBSA, and the velocity of Spectrozyme VIIa hydrolysis is determined at 37° C. by measuring the optical density at an OD405 nm every 10 seconds over 5 minutes using a ThermoMax® Kinetic Microplate Reader.

[3] = biological target: T2, human thrombin (Homo sapiens, UniProt P00734); assay: Thrombin IC50, cleavage of Chromozym TH; type: biochemical
T2 construct: purchased Enzyme Research Laboratories
Experimental: The ability of compounds to act as inhibitors of human thrombin catalytic activity is assessed by determination of that concentration of test substance that inhibits by 50% (IC50) the ability of human thrombin to cleave the chromogenic substrate Chromozym TH (Tosyl-Gly-Pro-Arg-pNA*Ac, Boehringer Mannheim). Typically, 145 μL human thrombin (0.75 nM, Enzyme Research Laboratories) in a HPB buffer (10 mM HEPES, 100 mM NaCl, 0.05% BSA, 0.1% PEG-8000, pH 7.4) and 5 μL of test substance in DMSO (2% final) are incubated for 60 minutes at room temperature. Following preheating to 37° C. for 5 minutes, to this mixture is added 100 μL of Chromozym TH in HPB buffer. The velocity of Chromozym TH hydrolysis is determined at 37° C. by measuring the initial rate of change of the optical density at OD405 nm every 10 seconds for 5 minutes using a ThermoMax® Kinetic Microplate Reader.

[4] = biological target: T3, human factor Xa (Homo sapiens, UniProt P00742); assay: Factor Xa IC50, cleavage of chromogenic substrate S2765; type: biochemical
T3 construct: 145 μL human factor Xa (1 nM final, Enzyme Research Laboratories); purchased Enzyme Research Laboratories
Experimental: The ability of compounds to act as inhibitors of human factor Xa catalytic activity is assessed by determination of that concentration of test substance that inhibits by 50% (IC50) the ability of human factor Xa to cleave the chromogenic substrate S2765 (N-CBz-D-Arg-L-Gly-L-Arg-p-nitroanilide. 2HCl, DiaPharma). Typically, 145 μL human factor Xa (1 nM final, Enzyme Research Laboratories) in 10 mM HEPES, 150 mM NaCl, 0.1% BSA, pH 7.4 (HBSA buffer), and 5 μL of test substance in DMSO (2% final) are incubated for 60 minutes at room temperature. Following preheating to 37° C. for 5 minutes, to this mixture is added 100 μL of S2765 in HBSA buffer. The velocity of S2765 hydrolysis is determined at 37° C. by measuring the initial rate of change of the optical density at OD405 nm every 10 seconds for 5 minutes using a ThermoMax® Kinetic Microplate Reader.

[5] = system: dog electrolytic injury model of thrombosis; assay: Dog electrolytic injury model of thrombosis; type: in vivo
Source text: The effects of Example 2 on thrombosis and hemostasis has been studied in a dog electrolytic injury model of thrombosis. In this model, the thrombosis influencing event is an electrical current is applied to the femoral vein (or artery) by applying an anodal direct current (300 uA) to the intimal surface of the vessel in the presence of restricted blood flow (Goldblatt clamps placed around the vessel). The end points of the experiment are the time to occlusion (TTO) and thrombus weight. […] In the highest dose group, TTO was increased to near maximal effect of 240 minutes in both arteries and veins. The net thrombus weight was reduced from 50 mg to 18 mg [artery] and 110 mg to 15 mg [vein] in the highest dose group. Example 2, at the highest dose, prolonged aPTT, PT, by 1.4-, and 1.75-fold, respectively.

[6] = biological target: T4, human prothrombinase (PTase) complex (Homo sapiens, UniProt P00742); assay: In vitro assay for human prothrombinase; type: biochemical; conditions: PTase activity expressed by thrombin activity
T4 construct: 2.5 pM human factor Xa (Enzyme Research Laboratories); purchased Enzyme Research Laboratories
Experimental: For determination of IC50 (PTase) of the compounds of the invention, PTase activity was expressed by thrombin activity.
PTase reaction was performed in 100 μL of mixture containing PTase (20 μM) PCPS (Avanti Polar Lipids following a procedure modified from Barenholz et al., Biochemistry, 1977;16:2806-2810) in a 30:70 ratio, 2.5 nM human factor Va (Enzyme Research Laboratories), and 2.5 pM human factor Xa (Enzyme Research Laboratories) in modified HEPES buffer (10 mM Hepes, 150 mM NaCl, 0.1% PEG-8000, 0.05% BSA, 2.5 mM CaCl2, pH 7.4), 3 μM human prothrombin (Enzyme Research Laboratories) and varied concentrations of the test compounds (1 nM to 100 μM in DMSO, 2% final). Reaction was started by co-incubating PTase with test compound for 60 minutes at room temperature, followed by addition of prothrombin for 6 minutes at room temperature. Next, the reaction was quenched by the addition of 100 μL of 20 mM EDTA. Activity of the thrombin (product) is then measured in the presence of 50 μL S2238 (250 μM final, H-D-Phe-Pip-Arg-pNA*Ac, DiaPharma) as substrate by measuring the change at 37° C. in OD405 nm for 5 minutes at 10 second intervals using a ThermoMax® Kinetic Microplate Reader.

[7] = system: rabbit veno-venous shunt model of thrombosis; assay: Rabbit veno-venous shunt model of thrombosis; type: in vivo
Experimental: The effects of Example 2 on thrombosis and hemostasis has been studied in a rabbit veno-venous shunt model of thrombosis. In that model, a plastic shunt which contains cotton thread was inserted into abdominal vena cava and thrombus developed inside the shunt under control conditions. The end points of the experiment are the time to occlusion (TTO) and thrombus weight. Example 2 was given to the rabbit via jugular vein as a single bolus followed by constant infusion for 140 minutes. Three doses have been tested in a total of 15 rabbits (5 rabbits in each group): 30 μg/kg+1 μg/kg/min, 60 μg/kg+2 μg/kg/min, and 480 μg/kg+16 μg/kg/min. […] In the highest dose group, TTO was increased from 17 minutes under control condition to 100 minutes. The net thrombus weight was reduced from 50 to 20 mg in that group. Example 2, at the highest dose, prolonged aPTT, PT, by 5-, and 3.9-fold, respectively.

[8] = system: pooled plasma from human volunteers; assay: In vitro diluted prothrombin time (dPT) assay; type: biochemical
Experimental: Rat, rabbit, dog, and human blood (typically 1.8 mL) was collected and added to a sodium citrate solution (3.8%) to afford a 1:10 dilution. After centrifugation (2000 g for 10 minutes), the blood plasma was stored at −70° C. to 0° C. Conventional prothrombin time (PT) tests were carried out in the presence of various concentrations of test compound and the concentration of test compound required to double the clotting time determined. Typically, the test compound (50 μL volume of varying concentrations 0.1 μM to 1000 μM) and blood plasma (100 μL volume) were incubated at 37° C. for 10 minutes, and then tissue thromboplastin, typically Neoplastine from American Bioproducts, with calcium was added. Fibrin formation and the time required for a clot to form were determined using an automated ST4 Clot Detection System in duplicate.
The effects of Example 2 on dPT were evaluated using pooled plasma from human volunteers.

[9] = infusion 2.5, 5 and 10 μg/kg/min
[10] = three doses, bolus + infusion 140 minutes

T3 sequence (P00742 235-488 limits assumed): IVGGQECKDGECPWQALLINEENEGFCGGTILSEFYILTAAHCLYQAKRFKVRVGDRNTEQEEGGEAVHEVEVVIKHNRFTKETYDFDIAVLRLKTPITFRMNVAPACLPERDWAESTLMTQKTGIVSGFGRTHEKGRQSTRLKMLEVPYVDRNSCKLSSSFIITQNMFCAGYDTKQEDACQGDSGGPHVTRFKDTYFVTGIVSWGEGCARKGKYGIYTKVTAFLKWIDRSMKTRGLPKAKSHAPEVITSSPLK
T3 sequence (P00742 41-179 limits assumed): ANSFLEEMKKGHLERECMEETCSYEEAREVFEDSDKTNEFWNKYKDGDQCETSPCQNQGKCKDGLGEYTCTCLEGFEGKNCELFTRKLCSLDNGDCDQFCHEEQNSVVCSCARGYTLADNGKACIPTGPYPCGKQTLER
T1 sequence (P08709 213-466 limits assumed): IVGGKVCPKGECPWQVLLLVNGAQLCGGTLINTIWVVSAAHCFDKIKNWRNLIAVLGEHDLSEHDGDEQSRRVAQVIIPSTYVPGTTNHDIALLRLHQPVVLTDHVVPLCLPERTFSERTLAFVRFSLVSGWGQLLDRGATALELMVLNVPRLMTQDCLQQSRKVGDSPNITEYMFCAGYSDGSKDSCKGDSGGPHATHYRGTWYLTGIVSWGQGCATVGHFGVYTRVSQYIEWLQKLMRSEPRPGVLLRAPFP
T1 sequence (P08709 61-212 limits assumed): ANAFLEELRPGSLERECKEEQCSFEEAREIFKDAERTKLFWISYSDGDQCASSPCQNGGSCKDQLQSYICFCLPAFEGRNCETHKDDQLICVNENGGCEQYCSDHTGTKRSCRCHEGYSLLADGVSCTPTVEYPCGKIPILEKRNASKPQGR
T1 sequence (P13726 33-295 partner): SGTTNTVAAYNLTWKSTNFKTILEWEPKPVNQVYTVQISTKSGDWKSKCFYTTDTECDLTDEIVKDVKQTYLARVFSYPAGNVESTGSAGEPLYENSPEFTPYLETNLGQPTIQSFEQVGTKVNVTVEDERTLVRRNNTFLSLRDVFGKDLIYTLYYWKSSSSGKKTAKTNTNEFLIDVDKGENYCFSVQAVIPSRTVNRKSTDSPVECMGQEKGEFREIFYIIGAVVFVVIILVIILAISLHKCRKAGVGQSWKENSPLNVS
T4 sequence (P00742 235-488 limits assumed): as the sequence (P00742 235-488 limits assumed) above
T4 sequence (P00742 41-179 limits assumed): as the sequence (P00742 41-179 limits assumed) above
T4 sequence (P12259 29-737 partner limits assumed): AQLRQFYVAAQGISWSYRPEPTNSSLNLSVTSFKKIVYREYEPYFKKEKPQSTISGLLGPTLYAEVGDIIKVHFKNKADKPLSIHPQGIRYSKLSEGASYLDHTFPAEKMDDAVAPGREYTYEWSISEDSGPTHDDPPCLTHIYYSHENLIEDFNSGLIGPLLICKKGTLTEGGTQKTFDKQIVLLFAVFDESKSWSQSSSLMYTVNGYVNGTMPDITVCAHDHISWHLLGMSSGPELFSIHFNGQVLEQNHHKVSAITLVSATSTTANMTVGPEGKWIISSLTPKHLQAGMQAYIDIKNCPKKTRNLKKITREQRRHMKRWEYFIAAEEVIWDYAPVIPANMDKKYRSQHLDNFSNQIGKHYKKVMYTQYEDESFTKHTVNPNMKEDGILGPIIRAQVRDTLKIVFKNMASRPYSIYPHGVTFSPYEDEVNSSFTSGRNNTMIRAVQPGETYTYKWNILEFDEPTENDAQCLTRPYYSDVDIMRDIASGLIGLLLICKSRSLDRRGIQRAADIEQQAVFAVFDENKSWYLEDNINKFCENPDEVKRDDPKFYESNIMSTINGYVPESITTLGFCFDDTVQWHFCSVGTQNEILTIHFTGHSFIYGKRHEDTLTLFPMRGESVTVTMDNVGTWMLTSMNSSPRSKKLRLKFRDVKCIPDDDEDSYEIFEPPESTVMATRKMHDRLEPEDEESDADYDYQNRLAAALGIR
T4 sequence (P12259 1574-2224 partner limits assumed): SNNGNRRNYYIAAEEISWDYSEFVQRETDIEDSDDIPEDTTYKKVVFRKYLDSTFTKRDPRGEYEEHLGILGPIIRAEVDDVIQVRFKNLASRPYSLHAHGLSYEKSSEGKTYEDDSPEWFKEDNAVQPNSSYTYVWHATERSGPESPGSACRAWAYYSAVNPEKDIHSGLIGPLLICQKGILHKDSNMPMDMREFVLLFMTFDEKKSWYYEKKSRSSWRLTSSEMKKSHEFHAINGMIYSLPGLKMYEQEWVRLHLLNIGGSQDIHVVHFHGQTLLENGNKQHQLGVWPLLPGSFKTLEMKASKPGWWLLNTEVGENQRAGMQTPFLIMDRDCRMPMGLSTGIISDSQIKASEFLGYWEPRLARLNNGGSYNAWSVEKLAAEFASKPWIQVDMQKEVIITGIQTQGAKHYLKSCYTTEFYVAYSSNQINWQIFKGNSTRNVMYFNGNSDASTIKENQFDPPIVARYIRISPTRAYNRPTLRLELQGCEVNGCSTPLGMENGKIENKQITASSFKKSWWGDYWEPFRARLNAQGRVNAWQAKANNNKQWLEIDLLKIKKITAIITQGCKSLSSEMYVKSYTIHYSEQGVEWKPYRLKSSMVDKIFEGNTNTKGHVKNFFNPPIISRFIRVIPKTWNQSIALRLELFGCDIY

- IC50 [1]: 2030 nM
- inhibition at 100 µM [2]: 16%
- IC50 [3]: 2960 nM
- IC50 [4]: 65 nM
SMILES: C[C@@H]1CCC[C@H](C)N1CCCCCn1c(=O)c(-c2cccc(C(=N)N)c2)nc2ccccc21 [Example 1, 3-[3-(Amidino)phenyl]-1-{5-[(2R,6S)-2,6-dimethylhexahydro-1-pyridinyl]pentyl}-1,2-dihydro-2-quinoxalinone]

- IC50 [1]: 2450 nM
- inhibition at 100 µM [2]: 13%
- IC50 [3]: 7020 nM
- IC50 [4]: 9 nM
- IC50 [6]: 1.5 nM
SMILES: C[C@@H]1CCC[C@H](C)N1CCCCCn1c(=O)c(-c2cc(C(=N)N)ccc2O)nc2ccccc21 [Example 2, 3-(4-5-[(2R,6S)-2,6-dimethyltetrahydro-1(2H)-pyridinyl]pentyl-3-oxo-3,4-dihydro-2-quinoxalinyl)-4-hydroxybenzenecarboximidamide]
- prolongation of PT ([5]; highest dose): 1.75 fold
- prolongation of aPTT ([5]; highest dose): 1.4 fold
- time to occlusion (TTO) ([5]; highest dose 10 μg/kg/min infusion, both arteries and veins): ~240 min
- net thrombus weight [artery] ([5]; highest dose 10 μg/kg/min, artery, control 50 mg): 18 mg
- net thrombus weight [vein] ([5]; highest dose 10 μg/kg/min, vein, control 110 mg): 15 mg
- effect on net thrombus weight [5, 9]: reduced the net thrombus weight
- effect on time to occlusion [5, 9]: dose-dependently prolonged the time to occlusion
- prolongation of PT ([7]; highest dose): 3.9 fold
- prolongation of aPTT ([7]; highest dose): 5 fold
- net thrombus weight ([7]; highest dose 480 μg/kg + 16 μg/kg/min iv, control 50 mg): 20 mg
- time to occlusion (TTO) ([7]; highest dose 480 μg/kg + 16 μg/kg/min iv, control 17 minutes): 100 min
- effect on net thrombus weight [7, 10]: reduced the net thrombus weight
- effect on time to occlusion [7, 10]: dose-dependently prolonged the time to occlusion
- concentration which caused 2 fold prolongation of dPT [8]: 0.05 µM
- fold increase in dPT ([8]; 0.1 μM): 3.2 fold
- effect on dPT ([8]; over concentrations): concentration-dependently prolonged dPT
